Laboratory results published in patent publication US8329686B2, “Isatin analogues and uses therefor” (Washington University, priority 2006, dated 2012).
Where two headings read alike, the source gives them in different places. Each block holds one compound with its values, some of them ahead of it.

Key:
caspase 7 = target: T1, caspase 7 (Homo sapiens, UniProt P55210); test: Enzyme inhibition assay, caspase 7 (fluorogenic Ac-DEVD-AMC); assay type: biochemical
T1 construct: purchased Sigma-Aldrich (St. Louis, Mo.)
T1 sequence (P55210 24-198 limits assumed): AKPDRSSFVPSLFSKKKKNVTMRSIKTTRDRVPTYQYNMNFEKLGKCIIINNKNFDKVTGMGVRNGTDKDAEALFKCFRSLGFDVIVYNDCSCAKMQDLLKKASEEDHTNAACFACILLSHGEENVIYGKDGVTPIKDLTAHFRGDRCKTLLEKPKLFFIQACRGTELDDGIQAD
T1 sequence (P55210 207-303 limits assumed): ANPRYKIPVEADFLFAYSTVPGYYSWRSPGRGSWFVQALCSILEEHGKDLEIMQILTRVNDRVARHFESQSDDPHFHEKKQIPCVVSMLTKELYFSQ

caspase-3 = target: T2, caspase-3 (Homo sapiens, UniProt P42574); test: Enzyme inhibition assay, caspase 3 (fluorogenic Ac-DEVD-AMC); assay type: biochemical
T2 construct: purchased Sigma-Aldrich (St. Louis, Mo.)
T2 sequence (P42574 29-175 limits assumed): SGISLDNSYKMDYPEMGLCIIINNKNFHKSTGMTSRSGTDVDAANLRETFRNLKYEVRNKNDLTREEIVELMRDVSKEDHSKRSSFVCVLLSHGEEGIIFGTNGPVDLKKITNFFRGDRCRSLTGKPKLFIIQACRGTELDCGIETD
T2 sequence (P42574 176-277 limits assumed): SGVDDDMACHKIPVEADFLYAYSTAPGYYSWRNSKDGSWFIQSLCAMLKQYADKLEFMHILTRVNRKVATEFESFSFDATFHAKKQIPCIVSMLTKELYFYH

caspase 1 = target: T3, caspase 1 (Homo sapiens, UniProt P29466); test: Enzyme inhibition assay, caspase 1 (fluorogenic Ac-YVAD-AMC); assay type: biochemical
T3 construct: purchased BIOMOL Research Laboratories (Plymouth Meeting, Pa.)
T3 sequence (P29466 120-297 limits assumed): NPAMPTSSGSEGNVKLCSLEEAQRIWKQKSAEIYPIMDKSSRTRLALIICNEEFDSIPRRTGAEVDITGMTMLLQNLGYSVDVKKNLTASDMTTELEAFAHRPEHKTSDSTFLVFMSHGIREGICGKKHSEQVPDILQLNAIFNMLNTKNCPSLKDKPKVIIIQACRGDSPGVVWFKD
T3 sequence (P29466 317-404 limits assumed): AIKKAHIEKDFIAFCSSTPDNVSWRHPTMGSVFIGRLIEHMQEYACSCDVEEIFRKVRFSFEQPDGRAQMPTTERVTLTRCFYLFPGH

caspase 6 = target: T4, caspase 6 (Homo sapiens, UniProt P55212); test: Enzyme inhibition assay, caspase 6 (fluorogenic Ac-VEID-AMC); assay type: biochemical
T4 construct: purchased Sigma-Aldrich (St. Louis, Mo.)
T4 sequence (P55212 24-179 limits assumed): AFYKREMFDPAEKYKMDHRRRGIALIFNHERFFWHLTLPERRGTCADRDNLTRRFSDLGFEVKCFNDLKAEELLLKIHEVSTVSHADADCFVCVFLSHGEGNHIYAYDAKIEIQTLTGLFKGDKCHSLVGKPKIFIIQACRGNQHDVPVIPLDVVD
T4 sequence (P55212 194-293 limits assumed): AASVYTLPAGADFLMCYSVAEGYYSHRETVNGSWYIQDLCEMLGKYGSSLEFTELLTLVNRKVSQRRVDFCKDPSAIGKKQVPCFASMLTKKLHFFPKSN

caspase 8 = target: T5, caspase 8 (Homo sapiens, UniProt Q14790); test: Enzyme inhibition assay, caspase 8 (fluorogenic Ac-IETD-AMC); assay type: biochemical
T5 construct: purchased Sigma-Aldrich (St. Louis, Mo.)

[1] = Table 5, read-out: IC50 (nM) caspase-7
[2] = Table 5, read-out: IC50 (nM) caspase-3
[3] = Table 6, read-out: IC50 (nM) caspase-1
[4] = Table 6, read-out: IC50 (nM) caspase-6
[5] = Table 6, read-out: IC50 (nM) caspase-7
[6] = Table 6, read-out: IC50 (nM) caspase-3
[7] = Table 6, read-out: IC50 (nM) caspase-8
[8] = Table 2, read-out: IC50 (nM) Caspase 1
[9] = Table 2, read-out: IC50 (nM) Caspase 6
[10] = Table 2, read-out: IC50 (nM) Caspase 7
[11] = Table 2, read-out: IC50 (nM) Caspase 3
[12] = Table 2, read-out: IC50 (nM) Caspase 8

T5 sequence (Q14790 217-374 limits assumed): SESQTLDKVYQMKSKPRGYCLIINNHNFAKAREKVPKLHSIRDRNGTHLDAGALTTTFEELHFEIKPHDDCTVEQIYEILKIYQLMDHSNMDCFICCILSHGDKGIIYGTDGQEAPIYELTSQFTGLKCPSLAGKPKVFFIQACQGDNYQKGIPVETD
T5 sequence (Q14790 385-479 limits assumed): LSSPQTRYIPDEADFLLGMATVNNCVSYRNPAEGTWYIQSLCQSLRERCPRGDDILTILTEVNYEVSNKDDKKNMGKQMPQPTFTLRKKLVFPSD

melting point: 175.4 to 176.8 °C
Structure (SMILES): CSc1ccc(CN2C(=O)C(=O)c3cc(S(=O)(=O)N4CCC[C@H]4COc4ccccc4)ccc32)cc1 [Compound 11d, (S)-1-(4-Methylthiobenzyl)-5-(2-phenoxymethyl-pyrrolidine-1-sulfonyl)-1H-indole-2,3-dione]

IC50 (caspase 7; [1]): 17 ± 3 nM | melting point: 176.8 to 178.3 °C | IC50 (caspase-3; [2]): 10.9 ± 1.4 nM
Structure (SMILES): O=C1C(=O)N(Cc2ccc(F)nc2)c2ccc(S(=O)(=O)N3CC[C@H]3COc3ccccc3)cc21 [Compound 18g, (S)-1-(6-Fluoropyridin-3-ylmethyl)-5-(2-phenoxymethylazetidine-1-sulfonyl)-1H-indole-2,3-dione]

IC50 (caspase 7; [1]): 22.7 ± 3.1 nM | melting point: 144.7 to 146.1 °C | IC50 (caspase-3; [2]): 5.8 ± 1 nM
Structure (SMILES): O=C1C(=O)N(Cc2cccc(F)n2)c2ccc(S(=O)(=O)N3CC[C@H]3COc3ccccc3)cc21 [Compound 18i, (S)-1-(6-Fluoropyridin-2-yl-methyl)-5-(2-phenoxymethylazetidine-1-sulfonyl)-1H-indole-2,3-dione]

IC50 (caspase 7; Table 4, read-out: IC50 (nM) caspase-7): 28 ± 0.7 nM | melting point: 97.2 to 99.1 °C | IC50 (caspase-3; Table 4, read-out: IC50 (nM) caspase-3): 12.2 ± 0.3 nM
Structure (SMILES): O=C1C(=O)N(Cc2ccccc2)c2ccc(S(=O)(=O)N3CCC[C@H]3COc3ccccc3)cc21 [Compound 2, (S)-1-Benzyl-5-(2-phenoxymethyl-pyrrolidine-1-sulfonyl)-1H-indole-2,3-dione]

IC50 (caspase 1; [3]): > 50000 nM | IC50 (caspase 6; [4]): > 5000 nM | IC50 (caspase 7; [5]): 23.3 ± 0.7 nM | IC50 (caspase-3; [6]): 4.4 ± 1.4 nM | IC50 (caspase 8; [7]): > 50000 nM
Structure (SMILES): CSc1ccc(CN2C(=O)C(=O)c3cc(S(=O)(=O)N4CCCC4COc4cccnc4)ccc32)cc1 (stereo not shown) [Compound 21d, 1-(4-Methylthiobenzyl)-5-(2-(pyridin-3-yl-oxymethyl)-pyrrolidine-1-sulfonyl)-1H-indole-2,3-dione]

IC50 (caspase 1; [3]): > 10000 nM | IC50 (caspase 6; [4]): > 5000 nM | IC50 (caspase 7; [5]): 14.1 ± 3.4 nM | IC50 (caspase-3; [6]): 5.2 ± 1.6 nM | IC50 (caspase 8; [7]): > 50000 nM
Structure (SMILES): O=C1C(=O)N(Cc2ccccc2)c2ccc(S(=O)(=O)N3CCCC3COc3cccnc3)cc21 (stereo not shown) [Compound 21b, 1-Benzyl-5-(2-(pyridin-3-yl-oxymethyl)-pyrrolidine-1-sulfonyl)-1H-indole-2,3-dione]

IC50 (caspase 1; [8]): 10000 nM | IC50 (caspase 6; [9]): 927 ± 35 nM | IC50 (caspase 7; [10]): 96.3 ± 20.7 nM | IC50 (caspase-3; [11]): 18.3 ± 0.4 nM | IC50 (caspase 8; [12]): > 50000 nM
Structure (SMILES): N#CC(C#N)=C1C(=O)N(Cc2ccc(OCCF)cc2)c2ccc(S(=O)(=O)N3CCC[C@H]3COc3ccccc3)cc21 [WC-II-92]

melting point: 74.5 to 75.4 °C
Structure (SMILES): O=C1C(=O)N(Cc2ccc(F)cc2)c2ccc(S(=O)(=O)N3CCC[C@H]3COc3ccccc3)cc21 [Compound 11c, (S)-1-(4-Fluorobenzyl)-5-(2-phenoxymethyl-pyrrolidine-1-sulfonyl)-1H-indole-2,3-dione]

IC50 (caspase 1; [8]): 3500 nM | IC50 (caspase 6; [9]): 770 ± 119 nM | IC50 (caspase 7; [10]): 26 ± 5.2 nM | IC50 (caspase-3; [11]): 7.5 ± 0.2 nM | IC50 (caspase 8; [12]): > 50000 nM
Structure (SMILES): N#CC(C#N)=C1C(=O)N(Cc2ccc(OCCF)cc2)c2ccc(S(=O)(=O)N3CCC[C@H]3COc3cccnc3)cc21 [WC-II-103]
